Consider five compounds from paper PMC3842171 (Bioorganic & medicinal chemistry letters, 2011).

Experiment [1] has as its system HDAC1, HDAC3, and HDAC6. Briefly: Single-concentration isoform selectivity screen with Fluor de Lys kit. The experiment is classed as biochemical.
In experiment [2] the test system is HDAC activity (HeLa cell lysates). The experiment can be described thus: Fluor de Lys in vitro fluorescence HDAC activity assay using HeLa cell lysates. The experiment is classed as biochemical.

Each structure is given as a SMILES string.

Regarding `CCCCC(CCCCC(=O)Nc1ccccc1)CC(=O)NO` (stereo not shown) [Compound 1a, C3-n-butyl SAHA], the “isoform preference in single-concentration screen” value (“isoform preference” below) in experiment [1] (32 µM) was “preference for HDAC6 over HDAC3”. With `O=C(CC(CCCCC(=O)Nc1ccccc1)c1ccccc1)NO` (stereo not shown) [Compound 1b], the “isoform preference” value in experiment [1] (32 µM) was “preference for HDAC6 over HDAC3”. `CCC(CCCCC(=O)Nc1ccccc1)CC(=O)NO` (stereo not shown) [Compound 1c]: the “fold decreased activity compared to the methyl analogue 1e” value in experiment [2] was found to be 91 fold. Further, the “isoform preference” value in experiment [1] (32 µM) is “greater potency for HDAC6 over HDAC1 and HDAC3”.

For `C=CC(CCCCC(=O)Nc1ccccc1)CC(=O)NO` (stereo not shown) [Compound 1d], the “isoform preference” value in experiment [1] (32 µM) is on record as “preference for HDAC6 over HDAC3”. In the case of `CC(CCCCC(=O)Nc1ccccc1)CC(=O)NO` (stereo not shown) [Compound 1e], in experiment [2] (IC50 ratio versus SAHA), the “fold less potent than SAHA” value is on record as 4 fold. Besides, the “isoform preference” value in experiment [1] (375 nM) is “slight preference for HDAC1 over HDAC3 and HDAC6”.
